# According to US12239643B2, “Therapeutic agent for inflammatory diseases, autoimmune diseases, fibrotic diseases, and cancer diseases” (MEIJI SEIKA PHARMA CO., LTD., priority 2018, dated 2025):
# Key:
# [1] = test system: IL-5; experiment: Cytokine suppression using human peripheral blood mononuclear cells: IL-5; assay type: cell-based; conditions: human PBMC, CD3 antibody and CD28 antibody; read-out: IL-5 Inhibitory Activity, Human PBMC (Test Example 4)
# Description: First, peripheral blood mononuclear cells (PBMC) were separated from whole blood by specific gravity centrifugation. Then, the isolated peripheral blood mononuclear cells were added to RPMI-1640 medium (containing 10% fetal bovine serum, penicillin, streptomycin, L-glutamine, and 2-mercaptoethanol), and cultured in a 96-well plate at 37° C. under 5% CO2 for 0 to 1 hour. The test compound dissolved in dimethyl sulfoxide was added to each well, followed by further culture at 37° C. under 5% CO2 for 1 hour. A medium containing only dimethyl sulfoxide instead of the test compound was added to the control well. […]
# (§1) The measurement results obtained by measuring the TNFα inhibitory activity and IL-5 inhibitory activity (50% inhibitory concentration) of the test compounds by the above method were evaluated in accordance with the following evaluated basis; A: less than 10 nM, B: 10 nM or more and less than 100 nM, and C: 100 nM or more. In addition, the measurement results obtained by measuring the IL-17A inhibitory activity, IL-23 inhibitory activity, IL-4 inhibitory activity, and IL-13 inhibitory activity (50% inhibitory concentration) of the test compounds were evaluated in accordance with the following evaluated basis; A: less than 500 nM, B: 500 nM or more and less than 5000 nM, and C: 5000 nM or more.
# [2] = test system: IL-5; experiment: Cytokine suppression using human T cells: IL-5; assay type: cell-based; conditions: T-cell; human CD3-positive T cells, CD3 and CD28 antibody, about 48 hours; read-out: IL-5 Inhibitory Activity, Human T-Cell (Test Example 5)
# Description: First, CD3-positive T cells were separated from whole blood by a magnetic bead method using an EasySep cell separation kit. Separated T cells suspended in RPMI-1640 medium were seeded on a 96-well plate previously coated with CD3 antibody (final concentration 3 μg/mL). Further, CD28 antibody (final concentration 5 ng/mL) was added as an IL-5 production stimulus and an IL-13 production stimulus. A test compound dissolved in dimethyl sulfoxide was added to each well, followed by culture at 37° C. under 5% CO2. The culture was carried out for about 18 hours for the evaluation of the amount of TNFα, and for about 48 hours for the evaluation of the amounts of IL-17A, IL-5, and IL-13. […]
# as §1, with “TNFα” for “TNFα inhibitory activity and IL-5”, “IL-5” for “IL-23 inhibitory activity, IL-4”
# [3] = test system: histamine-induced vascular hyperpermeability, Crl:CD1 (ICR) mice; experiment: Histamine-induced mouse vascular hyperpermeability model; assay type: in vivo; conditions: 10 mg/kg orally, histamine intradermally
# Description: Evaluation was carried out using male Crl:CD1 (ICR) mice (6 to 7 weeks of age). First, before conducting the test, the hair on the back of the mice was shaved with a small hair clipper under isoflurane anesthesia (an appropriate amount of about 3% with an inhalation isoflurane anesthesia machine). Next, the mice were orally administered with 10 mg/kg (10 mL/kg) of the test compound dissolved or suspended in 0.5% w/v methylcellulose (0.5% MC), and intravenously administered with 0.4% Evans blue saline (10 mL/kg) after 1 to 4 hours, and approximately 2 minutes later, 15 mM histamine saline was intradermally administered to the dorsal neck as a vascular hyperpermeability substance (20 μL/site). […] The absorption value (620/670 nm) of the supernatant after centrifugation was measured with a plate reader, and the average absorption value of the blank group was subtracted therefrom. Using the resultant as the absorption value of each tissue lysate, the vascular permeability suppression rate was calculated by the following formula. […]
# The measurement results obtained by measuring the vascular permeability suppression rate of the test compound by the above method were evaluated in accordance with the following evaluated basis; A: 90% or more, B: 80% or more and less than 90%, and C: less than 80%. […]
Compound,IC50 [1] [nM],IC50 [2] [nM],vascular permeability suppression rate [3]
"CCOc1cc([C@@H](CS(C)(=O)=O)N2C(=O)c3cccc(NC(C)=O)c3C2=O)ccc1OC [apremilast, reference compound]",> 100,≥ 5000,C (C: less than 80%)
"CC(C)(O)C(F)(F)Oc1ccc(-c2nccs2)c2oc(N3CC4CC(C3)N4)nc12 [Example 248, 1-((2-(3,6-Diazabicyclo[3.1.1]heptan-3-yl)-7-(thiazol-2-yl)benzo[d]oxazol-4-yl)oxy)-1,1-difluoro-2-methylpropan-2-ol]",< 10,< 500,A (A: 90% or more)
